Measured values taken from patent US4201784A, “Substituted 2-[2'-(5"-nitrofuryl-2")vinyl-and 4'-(5"-nitrofuryl-2"-1,3-butadieryl]quinoline-4-carboxylic acid amides and salts thereof” (Institut Organicheskogo Sinteza Akademii Nauk Latviiskoi SSR, priority 1977, dated 1980).

Assays:
Lewis lung carcinoma = assay: Antitumor / antimetastatic activity, Lewis lung carcinoma; type: in vivo, mice; details: daily doses of 6 and 10 mg/kg
Experimental: (§1) Apart from the tests on Ehrlich ascitic tumor, giniquine was studied on twelve more inoculated tumors. Seven tumors (melanoma B16, sarcoma AK, large intestine carcinoma acatol-1, sarcoma 180, adenocarcinoma 755, Lewis lung carcinoma and sarcoma 37) were inoculated subcutaneously with 50 mg of tumoral cells per mouse. Four tumors (lymphatic leukemies L 5178, L 5178Y, L 1210 and P-388) were inoculated intraperitoneally with 10^6 cells per mouse. One tumor (La, hemocytoblastosis) was inoculated intraperitoneally by injecting 50 mg of cell suspension of spleen and liver of mice suffering La hemocytoblastosis, per mouse. Giniquine was injected intraperitoneally five times for seven days: 1,2,3,4,7 days or 3,4,5,6,7 days after the implantation of tumor. The rate of deceleration of the tumor growth was established 14 days after the ultimate injection of giniquine; life of test animals was recorded for 60 days.

sarcoma 180 = assay: Antitumor activity, sarcoma 180; type: in vivo, mice
Experimental: as §1

melanoma B16 = assay: Antitumor activity, melanoma B16; type: in vivo, mice; details: 17 mg/kg
Experimental: as §1, with “Giniquine was injected intraperitoneally five times for seven days: 1,2,3,4,7 days or 3,4,5,6,7 days after the implantation of tumor.” left out

sarcoma AK = assay: Antitumor activity, sarcoma AK; type: in vivo, mice
Experimental: as §1

[1] = test system: lymphatic leukemia L 5178; assay: Antitumor activity, life prolongation, lymphatic leukemia L 5178; type: in vivo, mice
Experimental: as §1

Ehrlich ascitic tumor [2] = assay: Antitumor activity, life prolongation of mice with Ehrlich ascitic tumor; type: in vivo
Experimental: The experiment was conducted as follows. 10^6 cells of Erlich tumuor were injected in common white mice intraperitoneally, the dose being given per each animal. […] Each dose of the preparation was tested in six mice. The control group included 18 mice. Giniquine solution was prepared by dissolving the substance ex tempore in distilled water or in a buffer. The effect of the preparation is shown on charts 1,2,3.

sarcoma 37 = assay: Antitumor activity, life prolongation, sarcoma 37; type: in vivo, mice
Experimental: as §1

acatol-1 = assay: Antitumor activity, large intestine adenocarcinoma acatol-1; type: in vivo, mice
Experimental: as §1

La hemocytoblastosis = assay: Antitumor activity, La hemocytoblastosis; type: in vivo, mice; details: 10 mg/kg
Experimental: as §1

Walker carcinosarcoma [3] = details: cited from earlier work
Jensen sarcoma [4] = details: cited from earlier work
[5] = in vivo; cited from earlier work
adenocarcinoma 755 = assay: Antitumor activity, adenocarcinoma 755; type: in vivo, mice; details: daily doses of 10 and 17 mg/kg
Experimental: as §1

Walker carcinosarcoma [6] = assay: Growth deceleration / antitumor activity, Walker carcinosarcoma; type: in vivo; details: peroral administration
Excerpt: (§2) An antiblastic effect is caused by products of condensation of aldehydes of the nitrofuran series with (β-hydrazinoethyl)pyridine, 3-hydrazino-4-amino-1,2,4-triazole [Giller S. A., Kalnberga R. Yu., Zidermane A. A. et al. In the book "Methods of Synthesis and Search for Antitumor Preparations" (in Russian). Iss. 2. M. 1967. pp. 75-81; Giller S. A. et al. In the book "Furozolidine". (in Russian). Riga, 1962. pp. 5-18; Duavarte A. Zh., Zidermane A. A., Kravchenko I. M. et al. In the book "Proceedings of the 1st All-Union Conference on Chemotherapy of Malignant Tumors." Riga. 1968. pp. 216-217; Duavarte A. Zh. et al. In the book "Antitumor Compounds of the 5-nitrofuran Series." (in Russian). Riga, 1972. pp. 17-30)] and 5-aminobenzimidazol [Fuska J., Fuskova A., Jurasek A. "Neoplasma (Bratisl.)". 1973. v. 20. pp. 171-179].
(§3) "J. Pharm. Soc. Japan." 1964, 84(6). pp. 537-543; K. Miura, I. Okada. "Chem. Pharm. Bull." 1965. 13 (15). pp. 525-528].

[7] = in vivo; cited from earlier work; remark: listed apart in the source
Jensen sarcoma [8] = assay: Growth deceleration / antitumor activity, Jensen sarcoma; type: in vivo; details: peroral administration
Excerpt: as §2, §3

Pliss lymphosarcoma = assay: Antitumor activity, Pliss lymphosarcoma; type: in vivo; details: peroral administration
Excerpt: as §3

Ehrlich ascitic tumor [9] = assay: Influence of fluorafur on antitumor activity of giniquine, Ehrlich ascitic tumor; type: in vivo, mice
Experimental: In some experiments the influence of the known preparation fluorofur on the antitumoral activity of giniquine was studied. […] The tests were made on Ehrlich ascitic tumor. The preparations were injected 1,2,3,4 and 7 days after the implantation of tumor. Giniquine was injected intraperitoneally and fluorafur-subcutaneously.
giniquine was injected intraperitoneally, and fluorafursubcutaneously.

CCN(CC)CCCC(C)NC(=O)c1cc(C=Cc2ccc([N+](=O)[O-])o2)nc2ccccc12 (stereo not drawn) [2-[2'-(5"-nitrofuryl-2")vinyl]quinoline-4-carboxylic acid (α-methyl-δ-diethylaminobutyl)amide]
prolongation of life (Lewis lung carcinoma): 30%
prolongation of life (sarcoma 180; sarcoma 180): up to 20%
prolongation of life (melanoma B16): up to 25%
prolongation of life (sarcoma AK; sarcoma AK): up to 20%
prolongation of life ([1]; 6 to 28 mg/kg): 30 to 140%
prolongation of life (Ehrlich ascitic tumor [2]; three injections, 10 and 17 mg/kg): 70 to 130%

CCN(CC)CCCC(C)NC(=O)c1cc(C=Cc2ccc([N+](=O)[O-])o2)nc2ccccc12 (stereo not drawn) [2-[2'-(5"-nitrofuryl-2")vinyl]quinoline-4-carboxylic acid (α-methyl-δ-diethylaminobutyl)amide chloride]
prolongation of life (Ehrlich ascitic tumor [2]; single intraperitoneal injection, 6 mg/kg, 7 days after inoculation): 85%

O=C(NCCCO)c1cc(C=Cc2ccc([N+](=O)[O-])o2)nc2ccccc12 [2-[2'-(5"-nitrofuryl-2")vinyl]quinoline-4-carboxylic acid (γ-hydroxypropyl)amide]
prolongation of life (sarcoma 37; 12.5 mg/kg): 90%
prolongation of life (sarcoma AK; 2.8 mg/kg): up to 20%
prolongation of life ([1]; lymphatic leukemia L 5178): up to 40%
prolongation of life (Ehrlich ascitic tumor [2]; 7.5 mg/kg to 12.5 mg/kg, five injections): up to 120%

CCN(CC)CCCC(C)NC(=O)c1cc(C=CC=Cc2ccc([N+](=O)[O-])o2)nc2ccccc12 (stereo not drawn) [2-[4'-(5"-nitrofuryl-2")-1,3-butadienyl]quinoline-4-carboxylic acid (α-methyl-δ-diethylaminobutyl)amide diphosphate]
antitumor effect / sensitivity (in words) (acatol-1; acatol-1): a certain sensitivity
prolongation of life (sarcoma 37; daily dose of 17 mg/kg, intraperitoneal): up to 120%
antitumor effect / sensitivity (in words) (sarcoma 180; sarcoma 180): a certain sensitivity
antiblastic activity / sensitivity (in words) ([1]; lymphatic leukemia L 5178): a certain sensitivity
prolongation of life (Ehrlich ascitic tumor [2]; doses of 3.6-10 mg/kg): 60 to 160%

O=C(NCCCO)c1cc(C=CC=Cc2ccc([N+](=O)[O-])o2)nc2ccccc12 [[4'-(5"-nitrofuryl-2")-1,3-butadienyl]quinoline-4-carboxylic acid (γ-hydroxypropyl)amide]
prolongation of life (La hemocytoblastosis): about 20%
prolongation of life (acatol-1; 10 mg/kg): about 20%
prolongation of life ([1]; 1 mg/kg): up to 40%
prolongation of life (Ehrlich ascitic tumor [2]; 17 mg/kg): up to 80%

O=Cc1ccc([N+](=O)[O-])o1 [5-nitrofurfural]
activity compared with 5-nitrofuran (Walker carcinosarcoma [3]): about the same activity
activity compared with 5-nitrofuran (Jensen sarcoma [4]): about the same activity
acute toxicity compared with 5-nitrofuran [5]: a higher acute toxicity

CCN(CC)CCCC(C)NC(=O)c1cc(C=Cc2ccc([N+](=O)[O-])o2)nc2ccccc12 (stereo not drawn) [2-[2'-(5"-nitrofuryl-2")vinylquinoline]-4-carboxylic acid (α-methyl-δ-diethylaminobutyl)amide dibromide]
prolongation of life (Ehrlich ascitic tumor [2]; single intraperitoneal injection, 28 mg/kg, 7 days after inoculation): 85%

O=[N+]([O-])c1ccco1 [Example 5-nitrofuran, 5-nitrofuran]
deceleration of growth (Walker carcinosarcoma [3]): 39-51%
deceleration of growth (Jensen sarcoma [4]): 39-51%

CCN(CC)CCCC(C)NC(=O)c1cc(C=Cc2ccc([N+](=O)[O-])o2)nc2ccccc12 (stereo not drawn) [2-[2'-(5"-nitrofuryl-2")vinyl]quinoline-4-carboxylic acid (α-methyl-δ-diethylaminobutyl)amide diphosphate]
prolongation of life (sarcoma 180; daily doses of 10 and 17 mg/kg): up to 20%
prolongation of life ([1]; lymphatic leukemia): up to 130%
prolongation of life (adenocarcinoma 755): up to 20%
prolongation of life (Ehrlich ascitic tumor [2]; 3-5 intraperitoneal injections, daily doses 10 to 28 mg/kg): 140 to 180%

NC(=O)c1cc(C=Cc2ccc([N+](=O)[O-])o2)nc2ccccc12 [2-[2'-(5"-nitrofuryl-2")vinyl]quinoline-4-carboxylic acid amide]
antitumor activity (Walker carcinosarcoma [6]): not found any antitumor activity
antitumoral activity [7]: a very narrow range of antitumoral activity
antitumor activity (Jensen sarcoma [8]): not found any antitumor activity
antitumor activity (Pliss lymphosarcoma): not found any antitumor activity

O=c1[nH]c(=O)n(C2CCCO2)cc1F (stereo not shown) [fluorafur, reference compound]
Life prolongation (Ehrlich ascitic tumor [9]; Test No. 1, fluorafur 39.0 mg/kg daily): 35%
Life prolongation (Ehrlich ascitic tumor [9]; Test No. 1, fluorafur 65.0 mg/kg daily): 37%
Life prolongation (Ehrlich ascitic tumor [9]; Test No. 1, fluorafur 108.0 mg/kg daily): 40%
Life prolongation (Ehrlich ascitic tumor [9]; Test No. 1, fluorafur 180.0 mg/kg daily): 52%
Life prolongation (Ehrlich ascitic tumor [9]; Test No. 2, fluorafur 39.0 mg/kg daily): 18%
Life prolongation (Ehrlich ascitic tumor [9]; Test No. 2, fluorafur 65.0 mg/kg daily): -5%
Life prolongation (Ehrlich ascitic tumor [9]; Test No. 2, fluorafur 108.0 mg/kg daily): -17%
Life prolongation (Ehrlich ascitic tumor [9]; Test No. 2, fluorafur 180.0 mg/kg daily): -33%

O=P1(N(CCCl)CCCl)NCCCO1 (stereo not shown) [cyclophosphane, reference compound]
increase in mice life (Ehrlich ascitic tumor [2]; Ehrlich ascitic tumor): 0%
